According to patent publication US20030032620A1, “Low molecular weight chondroitin sulphate compound having cosmetic activity” (priority 2001, published 2003):

Legend:
Format in all cases: cell-based
Settings in all cases: human fibroblast culture, radioactive labelling
human dermal fibroblasts [1] = assay: Thymidine incorporation (cell growth) in human fibroblast cultures
Description: (§1) In another embodiment of the invention the CSBP obtained in the present example was characterised by its efficiency in stimulating the fundamental metabolism of human dermal fibroblasts, more particularly by incorporation of various markers such as thymidine (cell growth), leucine (protein synthesis) and glucosamine (synthesis of GAG).
(§2) Tests in vitro on human fibroblast cultures are a means of evaluating the capacity of CSBP to stimulate the fundamental metabolism of the extracellular matrix of the cutis. Under conventional conditions of cultivation in triplicate, the CSBP according to the invention and positive references (EGF, epidermis growth factor at 10 ng/ml, TGF-β human transformation factor b at 10 ng/ml and vitamin C at 20 mg/ml) were placed in contact with fibroblasts. The neosynthesis can be quantified by radioactive labelling of the specific metabolites (amino acids). Two concentrations of CSBP were tested: 2 and 0.4 mg/ml. The results obtained in the following table were subjected to the Dunnett test:
(§3) The culture conditions were as follows:
(§4) Culture medium MEM/M199: sodium bicarbonate 1.87 mg/ml, L-glutamine 2 mM, penicillin 50 IU/ml and foetal calf serum 10%.

human dermal fibroblasts [2] = assay: Leucine incorporation (protein synthesis) in human fibroblast cultures
Description: as §1, §2, §3, §4

human dermal fibroblasts [3] = assay: Glucosamine incorporation (synthesis of GAG) in human fibroblast cultures
Description: as §1, §2, §3, §4

Q: With “EGF: epidermis growth factor, positive reference (NSDSECPLSHDGYCLHDGVCMYIEALDKYACNCVVGYIGERCQYRDLKWWELR; Epidermal growth factor; UniProt P01133 971-1023, looked up) [reference compound]” as the molecule, how does the “% Thymidine” value (human dermal fibroblasts [1]; positive reference EGF at 10 ng/ml) read?
A: EGF: 100%

Q: How did the “% Leucine” value (human dermal fibroblasts [2]; positive reference vitamin C) turn out when O=C1O[C@H]([C@@H](O)CO)C(O)=C1O [VIT C, vitamin C, reference compound] was run?
A: VIT C: 45%

Q: With “low molecular weight chondroitin sulphate [CSBP]” as the molecule, how does the “% Thymidine” value (human dermal fibroblasts [1]; CSBP 0.4 mg/ml) read?
A: 74 p < 0.01%

Q: What about the “% Thymidine” value (human dermal fibroblasts [1]; CSBP 2.0 mg/ml) of the same molecule?
A: 183 p < 0.01%

Q: And the “% Leucine” value (human dermal fibroblasts [2]; CSBP 0.4 mg/ml)?
A: 44 p < 0.05%

Q: What about the “% Leucine” value (human dermal fibroblasts [2]; CSBP 2.0 mg/ml) of the same molecule?
A: 88 p < 0.01%

Q: And the “% Glucosamine” value (human dermal fibroblasts [3]; CSBP 0.4 mg/ml)?
A: 57 p < 0.01%

Q: What about the “% Glucosamine” value (human dermal fibroblasts [3]; CSBP 2.0 mg/ml) of the same molecule?
A: 178 p < 0.01%
